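Exposure lasted 48 hours, with cells grown in 96-well plates and compounds tested at five concentrations. Abbreviation: GI50, concentration required for 50% inhibition of growth. The concentration for full growth arrest is given as TGI.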
Experiments:
Assay in all cases: growth of human tumour cells (NCI), 48 h
SK-MEL-2 melanoma = tested on: SK-MEL-2 melanoma
TK-10 renal = tested on: TK-10 renal
HL-60(TB) leukemia = tested on: HL-60(TB) leukemia
HS 578T breast = tested on: HS 578T breast
HCT-15 colon = tested on: HCT-15 colon
NCI-H226 lung = tested on: NCI-H226 lung
CAKI-1 renal = tested on: CAKI-1 renal
SW-620 colon = tested on: SW-620 colon
LXFL 529 NSCLC = tested on: LXFL 529 NSCLC
DMS 273 small cell lung = tested on: DMS 273 small cell lung

Row | Structure (SMILES) | GI50 (SK-MEL-2 melanoma) | TGI (SK-MEL-2 melanoma) | GI50 (TK-10 renal) | TGI (TK-10 renal) | GI50 (HL-60(TB) leukemia) | TGI (HL-60(TB) leukemia) | GI50 (HS 578T breast) | TGI (HS 578T breast) | GI50 (HCT-15 colon) | TGI (HCT-15 colon) | GI50 (NCI-H226 lung) | TGI (NCI-H226 lung) | GI50 (CAKI-1 renal) | TGI (CAKI-1 renal) | GI50 (SW-620 colon) | TGI (SW-620 colon) | GI50 (LXFL 529 NSCLC) | TGI (LXFL 529 NSCLC) | GI50 (DMS 273 small cell lung) | TGI (DMS 273 small cell lung)
1 | NC(=O)c1ccc2nc(-c3ccc(C4(N)CCC4)cc3)c(-c3ccccc3)n2n1 | 15.2 µM | 31.5 µM | 2.85 µM | 27.8 µM | 11.5 µM | 30.2 µM | 0.863 µM | 10 µM | 11.5 µM | 33.1 µM | 12.7 µM | 32.5 µM | 10.3 µM | 23.9 µM | 15 µM | 31.3 µM | – | – | – | –
2 | COc1cc[c]([Sb]([Br])([CH]=C(C)C)([CH]=C(C)C)[CH]=C(C)C)cc1 | 5.79 µM | 51.3 µM | 18.8 µM | > 100 µM | 1.73 µM | 13.7 µM | – | – | 40.5 µM | > 100 µM | – | – | 30.7 µM | > 100 µM | 6.46 µM | > 100 µM | 2.88 µM | 39.3 µM | 3.3 µM | 23.3 µM
3 | CCN1CCC2(CC1)NC(=O)c1c(c3ccc(Cl)c(Cl)c3n1C)C2C#N (stereo unspecified) | 2.02 µM | 4.42 µM | 1.8 µM | 5.38 µM | 2.01 µM | 6.02 µM | 1.81 µM | 5.57 µM | 1.81 µM | 4.75 µM | 5.67 µM | 23.7 µM | 2.25 µM | 8.23 µM | 1.94 µM | 3.77 µM | – | – | – | –
4 | Cc1coc2c1CC1OC1(C)CCC1OC1(C)C2 (stereo unspecified) | – | > 100 µM | – | > 100 µM | – | > 100 µM | – | > 100 µM | – | > 100 µM | – | > 100 µM | – | > 100 µM | – | > 100 µM | – | – | – | –
5 | COc1ccc2c(c1)CC[C@@H]1[C@@H]2CC[C@]2(C)c3[nH]ncc3C[C@@H]12 | 17 µM | > 50 µM | 27 µM | > 50 µM | 1.64 µM | 9.84 µM | 17.5 µM | > 50 µM | 16.8 µM | > 50 µM | 16.6 µM | > 50 µM | 16.2 µM | 48.8 µM | 16.1 µM | > 50 µM | – | – | – | –
6 | COc1ccc(S(=O)(=O)NC2=NCCN2C(=S)SN2CCn3c2nsc3=S)cc1OC | 24.1 µM | 75.1 µM | 22.2 µM | 73.8 µM | > 100 µM | > 100 µM | 28.4 µM | > 100 µM | 26.2 µM | > 100 µM | 26.5 µM | 81.5 µM | 16.5 µM | 61.8 µM | 18.9 µM | > 100 µM | – | – | – | –
7 | CC1(C(=O)NCCN(CCNC(=O)C2(C)CC3(C)CC(C)(C2)C(=O)NC3=O)CCNC(=O)C2(C)CC3(C)CC(C)(C2)C(=O)NC3=O)CC2(C)CC(C)(C1)C(=O)NC2=O (stereo unspecified) | – | > 100 µM | – | – | – | > 100 µM | – | – | – | > 100 µM | – | – | – | > 100 µM | – | > 100 µM | – | > 100 µM | – | > 100 µM
8 | O=C(Nc1ccc(Cl)cc1F)c1cc(F)ccc1O | 0.519 µM | 3.12 µM | 4.69 µM | 23.1 µM | 0.622 µM | 3.45 µM | 0.718 µM | 5.3 µM | 1.46 µM | 9.62 µM | 1.02 µM | 5.49 µM | 0.588 µM | 4.54 µM | 1.46 µM | 23.6 µM | – | – | – | –
